How the values were obtained:
[1] = test system: lung cancer in patients with idiopathic pulmonary fibrosis; test: Lung cancer prevention in idiopathic pulmonary fibrosis patients allocated to pirfenidone or non-pirfenidone group; assay type: in vivo, human; settings: for Effect on risk of incidence of lung cancer: logistic regression analysis; for Accumulated incidence of lung cancer: FIG. 1
Excerpt: Thus, the present inventors evaluated the cancer chemoprevention effect of pirfenidone in idiopathic pulmonary fibrosis patients who are said to have a high risk factor of carcinogenesis. […] This efficacy was not explained by its effectiveness on idiopathic pulmonary fibrosis, and is therefore a novel activity of pirfenidone.
87 in the pirfenidone group (83 idiopathic pulmonary fibrosis, four nonspecific interstitial pneumonia) and 232 in the non-pirfenidone group (213 idiopathic pulmonary fibrosis, 18 nonspecific interstitial pneumonia, and one patient of desquamative interstitial pneumonia). The patients in the pirfenidone group received pirfenidone for 12-75 months (an average of 27.9±14.7 months). As a result, the incidence of lung cancer in the pirfenidone group was 2, whereas in the non-pirfenidone group it was 49. The duration of observation period in the pirfenidone group was 65.5±42.6 months, whereas in the control group it was 57.1±37.5 months. In addition, among 73 deaths in the non-pirfenidone group, 11 (4.7%) patients died by lung cancer, whereas among 29 deaths in the pirifenidone group, one (1.2%) patient died by lung cancer.
The accumulated incidences of lung cancer in patients with idiopathic pulmonary fibrosis not treated with pirfenidone after 1, 5, and 10 years were 0.9%, 18.3%, and 26.8%, whereas in patients treated with pirfenidone after 1, 5, and 10 years the accumulated incidences of lung cancer were 0%, 2.5%, and 6.4%.
The risk factors of incidence of lung cancer were analyzed using logistic regression analysis. As for the variables, backgrounds such as age, sex, number of packs of cigarettes smoked per day by the number of years the person has smoked (pack year), current smoking, pulmonary emphysema, stage of idiopathic pulmonary fibrosis, lung functions (% vital capacity(VC), and forced expiratory volume in 1 second as percent of forced vital capacity; FEV 1%), respiratory function (carbon monoxide lung diffusing capacity; % DLCO), and arterial oxygen partial pressure (PAO2); home oxygen therapy (use/no use), pirfenidone (use/no use), prednisolone (use/no use), N-acetyl cysteine (use/no use) and so forth were used. […] Then, the factors affecting the incidence of lung cancer were analyzed using multivariate Cox proportion hazard mode. Four variables were found as affecting factors. […] This supports the lung cancer protective efficacy of pirfenidone.

[2] = test system: malignant glioma cells; settings: non-patent document 4; cited from earlier work
[3] = test system: fibrosis caused by pancreatic cancer; settings: non-patent document 5; cited from earlier work
[4] = test system: acute exacerbation in patients with idiopathic pulmonary fibrosis; settings: pre-treatment; non-patent document 6; cited from earlier work

SMILES | Effect on risk of incidence of lung cancer ([1]; use/no use) | Death by cancer (lung cancer), % ([1]; 87 patients in pirfenidone group) | Death by cancer (lung cancer), % ([1]; 87 patients in pirfenidone group, listed as pirifenidone) | Incidence of lung cancer, % ([1]; 87 patients in pirfenidone group, observation 65.5 ± 42.6 months, treatment 12-75 months) | Accumulated incidence of lung cancer ([1]; after 1 year) | Accumulated incidence of lung cancer ([1]; after 5 years) | Accumulated incidence of lung cancer ([1]; after 10 years) | Effect on risk of lung cancer ([1]; multivariate Cox proportion hazard model, in words) | Hazard ratio, risk of lung cancer ([1]; multivariate Cox proportion hazard model, use/no use) | Proliferation of malignant glioma cells [2] | Effect on fibrosis caused by pancreatic cancer [3] | Acute exacerbation caused by lung cancer surgery [4]
CC(=O)N[C@@H](CS)C(=O)O [N-acetyl cysteine] | significantly decrease the risk factors of incidence of lung cancer |  |  |  |  |  |  |  |  |  |  | 
Cc1ccc(=O)n(-c2ccccc2)c1 [Pirfenidone, 5-methyl-1-phenyl-2-(1H)-pyridone] | significantly decrease the risk factors of incidence of lung cancer | 1.1% | 1.2% | 2.3% | 0% | 2.5% | 6.4% | only factor decreasing the risk of lung cancer | 0.128 | inhibited proliferation | inhibitory effects on fibrosis | acute exacerbation was inhibited

From patent US20170224667A1, “CANCER CHEMOPREVENTIVE AGENT” (KDL, Inc., priority 2014, published 2017)
